Columns and labels:
Type in all cases: cell-based
[1] = system: lung adenocarcinoma cell A549; assay: MTT in vitro cell growth inhibition, lung adenocarcinoma cell A549 (48 h); settings: Homo sapiens, A549 cells
Description: (§1) Human breast cancer cell MCF-7, hepatocellular carcinoma cell HepG2, lung adenocarcinoma cell A549 were purchased from Shanghai Cell Bank of Chinese Academy of Sciences. Human leukemia cells HL-60, human leukemia cells adriamycin-resistant strain HL-60/ADR, and human glioblastoma cells U-87MG were purchased from Shanghai Chuanqiu Biotechnology Co. Human cervical cancer HeLa was purchased from Shanghai Jikai Gene Chemistry Technology Co. Human colon cancer cells HCT-116, human brain microvascular endothelial cells hCMEC/D3 were preserved by Tianjin Suntech Pharmaceutical Technology Co. Human colon cancer cells Sw620 and human colon cancer cells LoVo were provided by Tianjin Medical University Hospital.
(§2) Human breast cancer cell MCF-7, hepatocellular carcinoma cell HepG2, lung adenocarcinoma cell A549, human leukemia cell HL-60, human leukemia cell adriamycin-resistant strain HL-60/ADR, human glioblastoma cell U-87MG, human cervical carcinoma cell HeLa, human colon carcinoma cell HCT-116, human colon carcinoma cell Sw620, human colon carcinoma cell LoVo, Human brain microvascular endothelial cells HCMEC/D3 were cultured using DMEM medium. The medium was supplemented with 10% fetal bovine serum and 1% double antibody (penicillin+streptomycin), and the culture environment was an incubator filled with 5% CO2 at a temperature of 37 °C, when the cells basically grew all over the bottom of the dish (about 80%-90%), passaging culture was performed.
(§3) Preparation of MTT solution: Weigh 50 mg of MTT, dissolve it in 10 mL of phosphate buffer solution (PBS), dispense it, and store it at 4 °C away from light, it will be effective within two weeks.
(§4) Take the series of compounds diluted with medium to form 1 mg/ml master batch, before use, precise aspiration of the appropriate amount of sample master batch diluted with medium to form working solutions with different concentration gradients, such as 100 μg/ml, 10 μg/ml, 1 μg/ml, 0.1 μg/ml, 0.01 μg/ml, 0.001 μg/ml and so on.
(§5) 1. Take log phase cells, digest, centrifuge and resuspend. The cell density was adjusted to 1×10^5 cells/mL by adding culture medium, and 100 μl of prepared cell suspension per well was added and inoculated into 96-well cell culture plates, after which they were placed in a cell culture incubator for incubation.
(§6) 2. After 24 h of culture, the test group was added 2 μl of the series of compounds with concentrations of 100 μg/ml, 10 μg/ml, 1 μg/ml, 0.1 μg/ml, 0.01 μg/ml, 0.001 μg/ml, and 4 replicate wells were set up for each concentration, as well as a positive control group (etoposide) and a blank control group.
(§7) 3. The 96-well plates were incubated separately for 48 h and then 20 μl of MTT solution (concentration of 5 mg/ml) was added to each well and incubation was continued for 4 hours in the incubator.
(§8) 4. Remove the 96-well plate from the incubator, carefully aspirate the medium in the wells with a micropipette, and add 150 μl of dimethyl sulfoxide to each well, shake to dissolve the crystals completely, and then measure the absorbance OD value using an enzyme counter at 492 nm.
(§9) 5. The test was repeated three times consecutively and the cell inhibition rate was calculated according to the following formula: cell inhibition rate (%)=[1−OD value of the test group/OD of the blank control group)]×100%, and the IC50 value of the half inhibitory concentration of the samples for inhibiting cell growth was calculated.

[2] = system: human leukemia cells HL-60; assay: MTT in vitro cell growth inhibition, human leukemia cells HL-60 (48 h); settings: HL-60 cells
Description: as §1, §2, §3, §4, §5, §6, §7, §8, §9

[3] = system: human colon cancer cells HCT-116; assay: MTT in vitro cell growth inhibition, human colon cancer cells HCT-116 (48 h); settings: HCT116 cells
Description: as §1, §2, §3, §4, §5, §6, §7, §8, §9

[4] = system: human breast cancer cell MCF-7; assay: MTT in vitro cell growth inhibition, human breast cancer cell MCF-7 (48 h); settings: MCF7, MCF-7 cells
Description: as §1, §2, §3, §4, §5, §6, §7, §8, §9

[5] = system: hepatocellular carcinoma cell HepG2; assay: MTT in vitro cell growth inhibition, hepatocellular carcinoma cell HepG2 (48 h); settings: Homo sapiens, HepG2 cells
Description: as §1, §2, §3, §4, §5, §6, §7, §8, §9

[6] = system: human cervical cancer HeLa; assay: MTT in vitro cell growth inhibition, human cervical cancer HeLa (48 h); settings: HeLa cells
Description: as §1, §2
(§10) Preparation of MTT solution: Weigh 50 mg of MTT, dissolve it in 10 mL of phosphate buffer solution (PBS), dispense it, and store it at 4 °C away from light, it will be effective within two weeks. […]
(§11) 4. Remove the 96-well plate from the incubator, carefully aspirate the medium in the wells with a micropipette, and add 150 μl of dimethyl sulfoxide to each well, shake to dissolve the crystals completely, and then measure the absorbance OD value using an enzyme counter at 492 nm. […]

[7] = system: human colon cancer cells Sw620; assay: MTT in vitro cell growth inhibition, human colon cancer cells Sw620 (48 h); settings: SW-620
Description: as §1, §2, §10, §11

[8] = system: human colon cancer cells LoVo; assay: MTT in vitro cell growth inhibition, human colon cancer cells LoVo (48 h)
Description: as §1, §2, §10, §11

[9] = system: human brain microvascular endothelial cells hCMEC/D3; assay: MTT in vitro cell growth inhibition, human brain microvascular endothelial cells hCMEC/D3 (48 h)
Description: as §1, §2, §3, §4, §5
2. […]
as §11

Row | SMILES | IC50 [1] | IC50 [2] | IC50 [4] | IC50 [5] | also measured
1 | COC1=C[C@]23CCCN2CCc2cc4c(cc2[C@@H]3[C@@H]1OC(=O)C(O)(C/C=N\OC(=O)C(C)C)CCC(C)C)OCO4 (stereo partly drawn) [Compound I-3-23] | 21 nM | 34 nM |  |  | IC50 [3]: 71 nM
2 | COC(=O)C[C@](O)(CCc1cccc(NC(=O)NC2CCCCC2)c1)C(=O)O[C@@H]1C(OC)=C[C@]23CCCN2CCc2cc4c(cc2C13)OCO4 (stereo partly drawn) [Compound I-1-9] |  | 8.9 nM |  |  | 
3 | COC(=O)C[C@](O)(CCc1cccc(NC(=O)Nc2ccc(OC)cc2)c1)C(=O)O[C@@H]1C(OC)=C[C@]23CCCN2CCc2cc4c(cc2C13)OCO4 (stereo partly drawn) [Compound I-1-22] |  | 13.5 nM |  |  | 
4 | COC(=O)C[C@@](O)(CCc1cccc([N+](=O)[O-])c1)C(=O)O[C@@H]1C(OC)=C[C@]23CCCN2CCc2cc4c(cc2C13)OCO4 (stereo partly drawn) [Compound I-2-2] |  |  | 14 nM | 29 nM | 
5 | COC(=O)C[C@](O)(CCc1cccc(N)c1)C(=O)O[C@@H]1C(OC)=C[C@]23CCCN2CCc2cc4c(cc2[C@H]13)OCO4 [Compound I-2-5] |  | 3.1 nM | 11 nM | 40 nM | 
6 | COC(=O)C[C@](O)(CCCC(C)(C)O)C(=O)O[C@@H]1C(OC)=C[C@]23CCCN2CCc2cc4c(cc2[C@H]13)OCO4 [HHT, homoharringtonine, reference compound] | 190 nM | 40 nM | 40 nM | 22 nM | IC50 [6]: 34 nM; IC50 [3]: 26 nM; IC50 [7]: 35 nM; IC50 [8]: 335 nM; IC50 [9]: 171 nM
7 | COC(=O)C[C@](O)(CCc1cccc(NC(C)=O)c1)C(=O)O[C@@H]1C(OC)=C[C@]23CCCN2CCc2cc4c(cc2[C@H]13)OCO4 [Compound I-2-9] |  | 3.3 nM | 34 nM | 48 nM | 
8 | COC1=C[C@]23CCCN2CCc2cc4c(cc2[C@@H]3[C@@H]1OC(=O)C(O)(C/C=N\OC(C)=O)CCC(C)C)OCO4 (stereo partly drawn) [Compound I-3-13] | 45 nM | 18 nM |  |  | IC50 [3]: 16 nM
9 | COC(=O)C[C@](O)(CCc1cccc2ccccc12)C(=O)O[C@@H]1C(OC)=C[C@]23CCCN2CCc2cc4c(cc2[C@H]13)OCO4 [Compound I-2-43] |  |  |  | 15 nM | 
10 | COC(=O)C[C@](O)(CCc1cccc(NC(=O)NC2CCCC2)c1)C(=O)O[C@@H]1C(OC)=C[C@]23CCCN2CCc2cc4c(cc2C13)OCO4 (stereo partly drawn) [Compound I-1-2] | 70 nM | 7.7 nM | 0.5 nM | 14 nM | IC50 [7]: 12 nM; IC50 [8]: 57 nM
11 | C=CC(=O)O/N=C/CC(O)(CCC(C)C)C(=O)O[C@@H]1C(OC)=C[C@]23CCCN2CCc2cc4c(cc2[C@H]13)OCO4 (stereo partly drawn) [Compound I-3-22] | 39 nM |  |  |  | IC50 [3]: 48 nM
12 | COC(=O)C[C@](O)(CCC(F)(F)C(F)(F)F)C(=O)O[C@@H]1C(OC)=C[C@]23CCCN2CCc2cc4c(cc2[C@H]13)OCO4 [Compound I-2-30] | 21 nM |  |  |  | IC50 [6]: 28 nM
13 | COC(=O)C[C@](O)(CCc1cccc(NC(=O)Nc2ccc(C)cc2)c1)C(=O)O[C@@H]1C(OC)=C[C@]23CCCN2CCc2cc4c(cc2[C@H]13)OCO4 [Compound I-1-1] |  |  | 4.3 nM | 25 nM | 
14 | COC(=O)C[C@](O)(CCc1cccc(F)c1F)C(=O)O[C@@H]1C(OC)=C[C@]23CCCN2CCc2cc4c(cc2[C@H]13)OCO4 [Compound I-2-35] | 60 nM |  | 110 nM | 23 nM | 
15 | COC(=O)C[C@](O)(CCc1ccc2ccccc2c1)C(=O)O[C@@H]1C(OC)=C[C@]23CCCN2CCc2cc4c(cc2[C@H]13)OCO4 [Compound I-2-44] | 20 nM | 8.7 nM | 65 nM | 95 nM | 
16 | COC(=O)C[C@](O)(CCc1ccc(SC)cc1)C(=O)O[C@@H]1C(OC)=C[C@]23CCCN2CCc2cc4c(cc2[C@H]13)OCO4 [Compound I-2-41] | 150 nM |  | 60 nM | 10 nM | 
17 | COC1=C[C@]23CCCN2CCc2cc4c(cc2[C@@H]3[C@@H]1OC(=O)C(O)(C/C=N/OC(=O)[C@H](C)c1ccc2cc(OC)ccc2c1)CCC(C)C)OCO4 (stereo partly drawn) [Compound I-3-31] | 21 nM | 20 nM |  |  | IC50 [7]: 3.4 nM; IC50 [8]: 45 nM; IC50 [9]: 24 nM
18 | COC1=C[C@]23CCCN2CCc2cc4c(cc2[C@@H]3[C@@H]1OC(=O)C(O)(C/C=N\OC(=O)C(C)C)CCC=C(C)C)OCO4 (stereo partly drawn) [Compound I-3-25] | 92 nM |  |  |  | 
19 | COC(=O)C[C@](O)(CCCC(F)(F)F)C(=O)O[C@@H]1C(OC)=C[C@]23CCCN2CCc2cc4c(cc2[C@H]13)OCO4 [Compound I-2-29] | 61 nM |  |  |  | IC50 [6]: 25 nM
20 | COC(=O)C[C@](O)(CCc1ccccc1C(F)(F)F)C(=O)O[C@@H]1C(OC)=C[C@]23CCCN2CCc2cc4c(cc2[C@H]13)OCO4 [Compound I-2-38] | 290 nM |  | 220 nM | 75 nM | 
21 | CCCCC(O)(C/C=N\OC(=O)C(C)C)C(=O)O[C@@H]1C(OC)=C[C@]23CCCN2CCc2cc4c(cc2[C@H]13)OCO4 (stereo partly drawn) [Compound I-3-24] | 36 nM | 67 nM |  |  | IC50 [3]: 24 nM; IC50 [9]: 245 nM
22 | COC1=C[C@]23CCCN2CCc2cc4c(cc2[C@@H]3[C@@H]1OC(=O)C(O)(C/C=N/OC(C)=O)CCC=C(C)C)OCO4 (stereo partly drawn) [Compound I-3-15] | 83 nM |  |  |  | 
23 | COC(=O)C[C@](O)(CCc1ccc(OC)cc1)C(=O)O[C@@H]1C(OC)=C[C@]23CCCN2CCc2cc4c(cc2[C@H]13)OCO4 [Compound I-2-45] | 210 nM |  | 90 nM | 17 nM | 
24 | COC1=C[C@]23CCCN2CCc2cc4c(cc2[C@@H]3[C@@H]1OC(=O)C(O)(C/C=N/OC(=O)NC1CCCC1)CCC(C)C)OCO4 (stereo partly drawn) [Compound I-3-46] | 53 nM | 42 nM |  |  | IC50 [9]: 60 nM
25 | CCCCC(O)(C/C=N\OC(C)=O)C(=O)O[C@@H]1C(OC)=C[C@]23CCCN2CCc2cc4c(cc2[C@H]13)OCO4 (stereo partly drawn) [Compound I-3-14] | 44 nM |  |  |  | IC50 [3]: 69 nM
26 | COC1=C[C@]23CCCN2CCc2cc4c(cc2[C@@H]3[C@@H]1OC(=O)C(O)(CCC(C)C)CC(=O)SC)OCO4 (stereo partly drawn) [Compound I-2-52] |  |  |  |  | IC50 [3]: 46 nM
27 | COC1=C[C@]23CCCN2CCc2cc4c(cc2[C@@H]3[C@@H]1OC(=O)C(O)(C/C=N/OC(=O)[C@H](C)c1ccc2cc(OC)ccc2c1)CCc1ccc2c(c1)CCO2)OCO4 (stereo partly drawn) [Compound I-3-34] | 283 nM |  |  |  | IC50 [3]: 26 nM

From patent US20260365664A1, “HARRINGTONINE DERIVATIVE, PHARMACEUTICAL COMPOSITION THEREOF, PREPARATION METHOD THEREFOR, AND USE THEREOF” (NANKAI UNIVERSITY, priority 2022, published 2026)
